Measurements: patent publication US20150175599A1, “FAAH Inhibitors” (Ironwood Pharmaceuticals, Inc., priority 2010, published 2015)

Target: T1, hERG channel (Homo sapiens, UniProt Q12809)
T1 construct: expressed in transfected cells; host or cells: CHO (hERG-CHO), under Geneticin selection
Assay: hERG channel inhibition, automated patch clamp (IonWorks HT, hERG-CHO)
Type: cell-based
Conditions: CHO cells expressing hERG, 600 s incubation; for inhibition at 600 s, 1 µM: 1 μM compound, read-out: hERG Channel Inhibition % (at 1 μM), vehicle-subtracted values; for inhibition at 600 s, 10 µM: 10 μM compound, read-out: hERG Channel Inhibition % (at 10 μM), vehicle-subtracted values
Method: Human ether-a-gogo-related (hERG) ion channel encodes the inward rectifying voltage gated potassium channel in the heart and has a major role during the repolarization of the cardiac action potential. It is well established that blockade of this ion channel can lead to potentially lethal arrhythmias. hERG pre-clinical safety data is often used by regulatory agencies in elucidate the toxicity profile of certain compositions. The disclosed compounds of Table 1 were tested for their ability to inhibit hERG ion channels.
Media components include F12 Nutrient Mixture (Ham) with GlutaMAX™ (Invitrogen, Cat#31765), Fetal Bovine Serum, Certified (Invitrogen, Cat#16000-044—not heat activated), and Geneticin® Selective Antibiotic (Invitrogen, Cat#10131-027).
One vial of frozen cells, at 1.62×10^6 cells are thawed into a T150 flask (BD Falcon 355001) with 40 mL of pre-warmed complete media. Cells are cultured at 37° C., 5% CO2 for four hours prior to gently changing media. 99% of cells appear attached at this time point.
The flask is media changed at 24 hours post-thaw, the cells are imaged, media changed, and returned to the incubator. At this point, the cells appear healthy and about 25% confluent in the flask. Cells are typically passed 24-48 hours after thaw according to the following intervals and densities below. Cells are incubated at 30° C. for 48 hours prior to assay.
Using an automated patch clamp apparatus (IonWorks^HT), a three pulse protocol was applied by stepping from a holding potential of −80 mV to […] for 2 s, to activate hERG channels. The membrane voltage was then stepped back to −50 mV for 2 s to evoke a tail current prior to returning to the holding potential for 1 s. This sequence was repeated a further two times. This voltage protocol was applied prior to drug (Pre compound) and after 600 s in the presence of drug (Post compound).
The amplitude of the hERG tail current was calculated by measuring the difference between the maximum current on stepping to −50 mV of the third pulse (i.e. peak of the outward hERG tail current) and the current measured immediately prior to activation of any hERG current. This parameter was assessed before (pre tail current amplitude) and after 600 s incubation (post tail current amplitude) in drug. In order to assess the amount of block produced by test compounds, the data was first filtered using the IonWorks™ software to exclude any cells where the seal resistance was less than 50 MOhm. The remaining data was then exported to an excel compatible data file and only currents with tail currents greater than 250 pA were analyzed. The post/pre tail current amplitude ratio for the third pulse was calculated for each drug and control, and presented as percent inhibition.

T1 sequence (Q12809 whole entry): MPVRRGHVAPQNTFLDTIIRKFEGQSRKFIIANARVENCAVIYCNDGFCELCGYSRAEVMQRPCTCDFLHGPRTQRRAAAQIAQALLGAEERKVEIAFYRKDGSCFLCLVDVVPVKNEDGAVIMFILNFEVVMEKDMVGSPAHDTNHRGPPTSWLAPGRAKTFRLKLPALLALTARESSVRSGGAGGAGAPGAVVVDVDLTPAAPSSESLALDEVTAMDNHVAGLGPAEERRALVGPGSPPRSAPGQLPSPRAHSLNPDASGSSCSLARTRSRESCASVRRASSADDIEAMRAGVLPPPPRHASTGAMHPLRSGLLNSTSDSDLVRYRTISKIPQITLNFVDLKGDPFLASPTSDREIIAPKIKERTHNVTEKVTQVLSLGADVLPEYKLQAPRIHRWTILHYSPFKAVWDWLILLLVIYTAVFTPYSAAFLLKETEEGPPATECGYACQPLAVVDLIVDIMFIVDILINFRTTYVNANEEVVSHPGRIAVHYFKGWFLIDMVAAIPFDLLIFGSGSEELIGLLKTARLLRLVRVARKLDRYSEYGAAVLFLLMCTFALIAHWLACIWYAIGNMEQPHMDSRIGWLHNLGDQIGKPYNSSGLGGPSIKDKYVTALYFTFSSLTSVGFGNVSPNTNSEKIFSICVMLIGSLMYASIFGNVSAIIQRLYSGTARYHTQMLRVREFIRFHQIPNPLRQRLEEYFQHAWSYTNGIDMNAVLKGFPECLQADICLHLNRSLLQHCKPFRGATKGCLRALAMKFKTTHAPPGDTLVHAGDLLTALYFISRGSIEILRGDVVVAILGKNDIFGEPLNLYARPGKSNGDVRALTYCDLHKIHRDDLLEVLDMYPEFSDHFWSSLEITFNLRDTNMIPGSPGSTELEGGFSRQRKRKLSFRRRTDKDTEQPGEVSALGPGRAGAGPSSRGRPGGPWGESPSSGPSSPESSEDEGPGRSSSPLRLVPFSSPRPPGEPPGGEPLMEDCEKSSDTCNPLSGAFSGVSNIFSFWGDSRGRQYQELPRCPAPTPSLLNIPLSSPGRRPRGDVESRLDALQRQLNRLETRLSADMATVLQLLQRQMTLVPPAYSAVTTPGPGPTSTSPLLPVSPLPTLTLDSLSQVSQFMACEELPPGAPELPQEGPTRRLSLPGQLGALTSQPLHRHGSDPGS

| SMILES | inhibition at 600 s, 1 µM | inhibition at 600 s, 10 µM |
| --- | --- | --- |
| COc1ccc2c(C(=O)C(=O)Nc3ccnc(OC)c3)c(C)n(Cc3ccc(Cl)cc3)c2c1 [Compound 48, 2-(1-(4-chlorobenzyl)-6-methoxy-2-methyl-1H-indol-3-yl)-N-(2-methoxypyridin-4-yl)-2-oxoacetamide] | < 25% | < 25% |
| COc1ccc2c(c1)c(C(=O)C(=O)Nc1ccnc(OC)c1F)c(C)n2Cc1ccc(Cl)cc1 [Compound 53, 2-(1-(4-chlorobenzyl)-5-methoxy-2-methyl-1H-indol-3-yl)-N-(3-fluoro-2-methoxypyridin-4-yl)-2-oxoacetamide] | < 25% | < 25% |
| COc1cc(NC(=O)C(=O)c2c(C)n(Cc3ccc(Cl)cc3)c3cc(Cl)c(OC)cc23)ccn1 [Compound 55, 2-(6-chloro-1-(4-chlorobenzyl)-5-methoxy-2-methyl-1H-indol-3-yl)-N-(2-methoxypyridin-4-yl)-2-oxoacetamide] | < 25% | < 25% |
| COc1ccc2c(c1)c(C(=O)C(=O)Nc1ccnc(OC)c1)c(C)n2Cc1ccncc1 [Compound 16, 2-(5-methoxy-2-methyl-1-(pyridin-4-ylmethyl)-1H-indol-3-yl)-N-(2-methoxypyridin-4-yl)-2-oxoacetamide] | < 25% | < 25% |
| COc1cc(NC(=O)C(=O)c2c(C)n(Cc3ccc(Cl)cc3)c3ccc(OC(C)=O)cc23)ccn1 [Compound 1, 1-(4-chlorobenzyl)-3-(2-(2-methoxypyridin-4-ylamino)-2-oxoacetyl)-2-methyl-1H-indol-5-yl acetate] | < 25% | < 25% |
| COc1cc(NC(=O)C(=O)c2c(C)n(Cc3ncc(Cl)cc3Cl)c3cc(Cl)c(OC)cc23)ccn1 [Compound 70, 2-(6-chloro-1-((3,5-dichloropyridin-2-yl)methyl)-5-methoxy-2-methyl-1H-indol-3-yl)-N-(2-methoxypyridin-4-yl)-2-oxoacetamide] | < 25% | < 25% |
| COc1cc(NC(=O)C(=O)c2c(C)n(Cc3ccc(Cl)cc3)c3ccc(NC(C)=O)cc23)ccn1 [Compound 22, 2-(5-acetamido-1-(4-chlorobenzyl)-2-methyl-1H-indol-3-yl)-N-(2-methoxypyridin-4-yl)-2-oxoacetamide] | < 25% | < 25% |
| COc1ccc2c(c1)c(C(=O)C(=O)Nc1ccnc(OC)c1)c(C)n2Cc1ncc(Cl)cc1OC [Compound 100, 2-(1-((5-chloro-3-methoxypyridin-2-yl)methyl)-5-methoxy-2-methyl-1H-indol-3-yl)-N-(2-methoxypyridin-4-yl)-2-oxoacetamide] | < 25% | < 25% |
| COc1cc(NC(=O)C(=O)c2c(C)n(Cc3ccc(Cl)cc3)c3ccc(OC)nc23)ccn1 [Compound 36, 2-(1-(4-chlorobenzyl)-5-methoxy-2-methyl-1H-pyrrolo[3,2-b]pyridin-3-yl)-N-(2-methoxypyridin-4-yl)-2-oxoacetamide] | < 25% | < 25% |
| COc1cc(NC(=O)C(=O)c2c(C)n(Cc3ccc(Cl)cn3)c3ccccc23)ccn1 [Compound 68, 2-(1-((5-chloropyridin-2-yl)methyl)-2-methyl-1H-indol-3-yl)-N-(2-methoxypyridin-4-yl)-2-oxoacetamide] | < 25% | < 25% |
| COc1cc(NC(=O)C(=O)c2c(C)n(Cc3ccc(Cl)cc3)c3cccc(OC)c23)ccn1 [Compound 45, 2-(1-(4-chlorobenzyl)-4-methoxy-2-methyl-1H-indol-3-yl)-N-(2-methoxypyridin-4-yl)-2-oxoacetamide] | < 25% | < 25% |
| COc1cc(NC(=O)C(=O)c2c(C)n(Cc3ccc(Cl)cn3)c3ccc(C)cc23)ccn1 [Compound 61, 2-(1-((5-chloropyridin-2-yl)methyl)-2,5-dimethyl-1H-indol-3-yl)-N-(2-methoxypyridin-4-yl)-2-oxoacetamide] | 25 to 50% | 50 to 75% |
| COc1ccc2c(c1)c(C(=O)C(=O)Nc1ccnc(OC)c1Cl)c(C)n2Cc1ccc(Cl)cc1 [Compound 52, N-(3-chloro-2-methoxypyridin-4-yl)-2-(1-(4-chlorobenzyl)-5-methoxy-2-methyl-1H-indol-3-yl)-2-oxoacetamide] | < 25% | < 25% |
| COCc1ccc2c(c1)c(C(=O)C(=O)Nc1ccnc(OC)c1)c(C)n2Cc1ccc(Cl)cc1 [Compound 11, 2-(1-(4-chlorobenzyl)-5-(methoxymethyl)-2-methyl-1H-indol-3-yl)-N-(2-methoxypyridin-4-yl)-2-oxoacetamide] | < 25% | 25 to 50% |
| COc1ccc2c(c1)c(C(=O)C(=O)Nc1ccnc(OC)c1)c(C)n2Cc1ccccn1 [Compound 77, 2-(5-methoxy-2-methyl-1-(pyridin-2-ylmethyl)-1H-indol-3-yl)-N-(2-methoxypyridin-4-yl)-2-oxoacetamide] | < 25% | < 25% |
| COc1cc(NC(=O)C(=O)c2c(C)n(Cc3ccc(Cl)cc3)c3ccc(N)cc23)ccn1 [Compound 20, 2-(5-amino-1-(4-chlorobenzyl)-2-methyl-1H-indol-3-yl)-N-(2-methoxypyridin-4-yl)-2-oxoacetamide] | < 25% | < 25% |
| COc1cc(NC(=O)C(=O)c2c(C)n(Cc3ccc(Cl)cc3)c3c(OC)cccc23)ccn1 [Compound 51, 2-(1-(4-chlorobenzyl)-7-methoxy-2-methyl-1H-indol-3-yl)-N-(2-methoxypyridin-4-yl)-2-oxoacetamide] | < 25% | < 25% |
| COc1cnc2c(c1)c(C(=O)C(=O)Nc1ccnc(OC)c1)c(C)n2Cc1ccc(Cl)cn1 [Compound 41, 2-(1-((5-chloropyridin-2-yl)methyl)-5-methoxy-2-methyl-1H-pyrrolo[2,3-b]pyridin-3-yl)-N-(2-methoxypyridin-4-yl)-2-oxoacetamide] | < 25% | 25 to 50% |
| COc1cc(NC(=O)C(=O)c2c(C)n(Cc3ccc(Cl)cc3)c3ccc(C(=O)N(C)C)cc23)ccn1 [Compound 6, 1-(4-chlorobenzyl)-3-(2-(2-methoxypyridin-4-ylamino)-2-oxoacetyl)-N,N,2-trimethyl-1H-indole-5-carboxamide] | < 25% | < 25% |
| COc1ccc(Cn2c(C)c(C(=O)C(=O)Nc3ccnc(OC)c3)c3cc(OC)c(C)cc32)nc1 [Compound 96, 2-(5-methoxy-1-((5-methoxypyridin-2-yl)methyl)-2,6-dimethyl-1H-indol-3-yl)-N-(2-methoxypyridin-4-yl)-2-oxoacetamide] | < 25% | < 25% |
| COc1cc(NC(=O)C(=O)c2c(C)n(Cc3ncc(Cl)cc3F)c3ccc(C)cc23)ccn1 [Compound 33, 2-(1-((5-chloro-3-fluoropyridin-2-yl)methyl)-2,5-dimethyl-1H-indol-3-yl)-N-(2-methoxypyridin-4-yl)-2-oxoacetamide] | < 25% | < 25% |
| COc1cc(NC(=O)C(=O)c2c(C)n(Cc3ncc(Cl)cc3F)c3cc(Cl)c(OC)cc23)ccn1 [Compound 97, 2-(6-chloro-1-((5-chloro-3-fluoropyridin-2-yl)methyl)-5-methoxy-2-methyl-1H-indol-3-yl)-N-(2-methoxypyridin-4-yl)-2-oxoacetamide] | < 25% | < 25% |
| COc1cc(NC(=O)C(=O)c2c(C)n(Cc3ccc(Cl)cc3)c3ccc([N+](=O)[O-])cc23)ccn1 [Compound 19, 2-(1-(4-chlorobenzyl)-2-methyl-5-nitro-1H-indol-3-yl)-N-(2-methoxypyridin-4-yl)-2-oxoacetamide] | < 25% | 25 to 50% |
| COc1cc(NC(=O)C(=O)c2c(C)n(Cc3ccc(Cl)cn3)c3cc(OC)c(Cl)cc23)ccn1 [Compound 67, 2-(5-chloro-1-((5-chloropyridin-2-yl)methyl)-6-methoxy-2-methyl-1H-indol-3-yl)-N-(2-methoxypyridin-4-yl)-2-oxoacetamide] | < 25% | < 25% |
